IC50 and melting point data for 16 compounds are collected here from patent US20050070558A1, “6-Phenyldihydropyrrolopyrimidinedione derivatives” (priority 2001, published 2005).

Each structure is given as a SMILES string.

Broadly, the IC50 is the concentration at which inhibition is half-maximal. The term melting point denotes the temperature of the solid-liquid transition.

The first data set deals with T1, hA2b receptors (Homo sapiens, UniProt P29275).
T1 construct: purchased Receptor Biology, Inc. (USA); host or cells: HEK293
T1 sequence (P29275 1-332): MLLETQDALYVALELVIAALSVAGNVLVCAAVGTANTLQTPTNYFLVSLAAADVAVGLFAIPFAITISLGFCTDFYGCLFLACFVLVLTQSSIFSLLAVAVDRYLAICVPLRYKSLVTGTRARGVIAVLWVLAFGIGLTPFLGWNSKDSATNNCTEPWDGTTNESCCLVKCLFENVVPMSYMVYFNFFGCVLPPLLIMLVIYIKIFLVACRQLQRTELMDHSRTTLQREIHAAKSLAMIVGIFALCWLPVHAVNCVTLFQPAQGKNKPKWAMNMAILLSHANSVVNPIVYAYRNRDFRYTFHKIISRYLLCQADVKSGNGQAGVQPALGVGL
Briefly: Adenosine 2b receptor subtype competition radioligand binding ([3H]DPCPX). Conditions: membranes from hA2b receptors transfected to HEK293 cells, 30 min at 25° C., read-out: IC50 A2b. The procedure:
Adenosine 2b Receptor Subtype Competition Radioligand Binding
Human membranes from recombinant A2b receptors were purchased from Receptor Biology, Inc. (USA).
Competition assays were carried out by incubation of membranes from hA2b receptors transfected to HEK293 cells, [^3H]DPCPX as radioligand, buffer (50 mM Tris-HCl (pH 6.5), 10 mM MgCl2, 1 mM EDTA, 0.1 mM benzamidine, 2 units/ml adenosine deaminase), and unlabelled ligand in a total volume of 0.1 ml for 30 min at 25° C. NECA was used to determinate non-specific binding. Filter over Schleicher&Schuell GF/52 filters (pre-soaked 0.5% polyethylenyimine) in a Brandel cell harvester. Unbound radioligand was removed with 4×2 ml ice-cold 50 mM Tris-Hcl 50 mM (pH 6.5).
For the compound `CCCn1c(=O)c2[nH]c(-c3ccc(OCC(=O)N4CCN(c5ccccc5)CC4)cc3)cc2n(CCC)c1=O` [Example 2, 6-{4-[2-Oxo-2-(4-phenylpiperazin-1-yl)ethoxy]phenyl}-1,3-dipropyl-1,5-dihydropyrrolo[3,2-d]pyrimidine-2,4-dione], the IC50 was determined as 7 nM.

In the case of `CCCn1c(=O)c2[nH]c(-c3ccc(OCC(=O)Nc4ccc(F)cc4)cc3)cc2n(CCC)c1=O` [Example 3, 2-[4-(2,4-Dioxo-1,3-dipropyl-2,3,4,5-tetrahydro-1H-pyrrolo[3,2-d]pyrimidin-6-yl)phenoxy]-N-(4-fluorophenyl)acetamide], the IC50 was found to be 5 nM.

On to `CCCn1c(=O)c2[nH]c(-c3ccc(OCC(=O)N4CCc5ccccc5C4)cc3)cc2n(CCC)c1=O` [Example 4], for which the half-maximal inhibitory concentration (IC50) was determined as 3 nM.

Turning to `Cn1c(=O)c2[nH]c(-c3ccc(OCC(=O)Nc4nncs4)cc3)cc2n(C)c1=O` [Example 67, 2-[4-(1,3-Dimethyl-2,4-dioxo-2,3,4,5-tetrahydro-1H-pyrrolo[3,2-d]pyrimidin-6-yl)phenoxy]-N-[1,3,4]thiadiazol-2-ylacetamide], the IC50 was found to be 24 nM.

With `Cn1c(=O)c2[nH]c(-c3ccc(OCC(=O)N4CCN(c5ccccc5)CC4)cc3)cc2n(C)c1=O` [Example 68, 1,3-Dimethyl-6-{4-[2-oxo-2-(4-phenylpiperazin-1-yl)ethoxy]phenyl}-1,5-dihydropyrrolo[3,2-d]pyrimidine-2,4-dione], the IC50 was found to be 8 nM.

Take `CCCn1c(=O)c2[nH]c(-c3ccc(OCC(=O)N4CCC(c5ccccc5)(c5ccccc5)CC4)cc3)cc2n(C)c1=O` [Example 100, 6-{4-[2-(4,4-Diphenylpiperidin-1-yl)-2-oxo-ethoxy]phenyl}-1-methyl-3-propyl-1,5-dihydropyrrolo[3,2-d]pyrimidine-2,4 dione]: the half-inhibitory concentration (IC50) amounted to 10 nM.

As for `CCCn1c(=O)c2[nH]c(-c3ccc(OCc4nc(-c5ccccc5)no4)cc3)cc2n(CCC)c1=O` [Example 210, 6-[4-(3-Phenyl[1,2,4]oxadiazol-5-ylmethoxy)phenyl]-1,3-dipropyl-1,5-dihydropyrrolo[3,2-d]pyrimidine-2,4-dione], the IC50 stood at 17 nM.

In another data set the target is T2, hA2a receptors (Homo sapiens, UniProt P29274).
T2 construct: purchased Receptor Biology, Inc. (USA); host or cells: HEK293
T2 sequence (P29274 whole entry): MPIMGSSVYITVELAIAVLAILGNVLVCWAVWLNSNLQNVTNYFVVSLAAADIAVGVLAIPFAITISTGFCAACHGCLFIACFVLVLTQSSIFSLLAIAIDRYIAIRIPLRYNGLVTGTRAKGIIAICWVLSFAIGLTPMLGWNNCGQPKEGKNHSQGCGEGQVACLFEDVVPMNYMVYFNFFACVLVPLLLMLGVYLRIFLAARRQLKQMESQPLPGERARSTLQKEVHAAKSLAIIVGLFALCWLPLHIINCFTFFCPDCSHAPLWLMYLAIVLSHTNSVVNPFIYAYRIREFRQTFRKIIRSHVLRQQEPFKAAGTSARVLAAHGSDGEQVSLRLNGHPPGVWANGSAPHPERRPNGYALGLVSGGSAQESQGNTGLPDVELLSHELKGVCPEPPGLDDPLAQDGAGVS
Briefly: Adenosine 2a receptor subtype competition radioligand binding ([3H]ZM241385). The settings on record: membranes from hA2a receptors transfected to HEK293 cells, [3H]ZM241385, 90 min at 25° C.; read-out: IC50 A2a. How it is done: Adenosine 2a Receptor Subtype Competition Radioligand Binding
Human membranes from recombinant A2a receptors were purchased from Receptor Biology, Inc. (USA).
Competition assays were carried out by incubation of membranes from hA2a receptors transfected to HEK293 cells, [^3H]ZM241385 as radioligand, buffer (50 mM Tris-HCl (pH 7.4), 10 mM MgCl2, 1 mM EDTA, 2 units/ml adenosine deaminase), and unlabelled ligand in a total volume of 0.2 ml for 90 min at 25° C. NECA was used to determinate non-specific binding. Filter over Schleicher&Schuell GF/52 filters (pre-soaked 0.5% polyethylenyimine) in a Brandel cell harvester. Unbound radioligand was removed with 3×3 ml ice-cold 50 mM Tris-Hcl 50 mM (pH 7.4), 0.9% NaCl.
`CCCn1c(=O)c2[nH]c(-c3ccc(OCC(=O)Nc4ccc(F)cc4)cc3)cc2n(CCC)c1=O` [Example 3, 2-[4-(2,4-Dioxo-1,3-dipropyl-2,3,4,5-tetrahydro-1H-pyrrolo[3,2-d]pyrimidin-6-yl)phenoxy]-N-(4-fluorophenyl)acetamide]: the IC50 was found to be 22 nM.

As to `Cn1c(=O)c2[nH]c(-c3ccc(OCC(=O)Nc4nncs4)cc3)cc2n(C)c1=O` [Example 67, 2-[4-(1,3-Dimethyl-2,4-dioxo-2,3,4,5-tetrahydro-1H-pyrrolo[3,2-d]pyrimidin-6-yl)phenoxy]-N-[1,3,4]thiadiazol-2-ylacetamide], the IC50 was determined as 26 nM.

Consider `CCCn1c(=O)c2[nH]c(-c3ccc(OCC(=O)Nc4ccc(F)cc4)cc3)c(Br)c2n(CCC)c1=O` [Example 138, 2-[4-(7-Bromo-2,4-dioxo-1,3-dipropyl-2,3,4,5-tetrahydro-1H-pyrrolo[3,2-d]pyrimidin-6-yl)phenoxy]-N-(4-fluorophenyl)acetamide], for which the IC50 turned out to be 38 nM.

Regarding `COc1cc(-c2cc3c([nH]2)c(=O)n(C)c(=O)n3C)ccc1OCC(=O)Nc1ccc(F)cc1` [Example 160, 2-[4-(1,3-Dimethyl-2,4-dioxo-2,3,4,5-tetrahydro-1H-pyrrolo[3,2-d]pyrimidin-6-yl)-2-methoxyphenoxy]-N-(4-fluorophenyl)acetamide], the IC50 was 84 nM.

System in a further data set: not given
Assay: not given
Details: not given
With `Cn1c(=O)c2[nH]c(-c3ccc(OCC(=O)N4CCN(c5cccc(C(F)(F)F)c5)CC4)cc3)cc2n(C)c1=O` [Example 74, 1,3-Dimethyl-6-(4-{2-oxo-2-[4-(3-trifluoromethylphenyl)piperazin-1-yl]ethoxy}phenyl)-1,5-dihydropyrrolo[3,2-d]pyrimidine-2,4-dione], the melting point is > 275 °C (dec.).

In turn, `CCCn1c(=O)c2[nH]c(-c3ccc(COC(=O)Nc4cc(OC)nc(OC)n4)cc3)cc2n(CCC)c1=O` [Example 259, (2,6-Dimethoxy-pyrimidin-4-yl)-carbamic Acid 4-(2,4-dioxo-1,3-dipropyl-2,3,4,5-tetrahydro-1H-pyrrolo[3,2-d]pyrimidin-6-yl)benzyl Ester] registered a melting point of 182 to 185 °C.

`Cn1c(=O)c2[nH]c(-c3ccc(COC(=O)Nc4ccccn4)cc3)cc2n(C)c1=O` [Example 268, Pyridin-2-yl-carbamic acid 4-(1,3-dimethyl-2,4-dioxo-2,3,4,5-tetrahydro-1H-pyrrolo[3,2-d]pyrimidin-6-yl)benzyl ester] showed a melting point of 301 °C.

In the case of `Cc1ccc(NC(=O)OCc2ccc(-c3cc4c([nH]3)c(=O)n(C)c(=O)n4C)cc2)nc1` [Example 269, (5-Methylpyridin-2-yl)-carbamic acid 4-(1,3-dimethyl-2,4-dioxo-2,3,4,5-tetrahydro-1H-pyrrolo[3,2-d]pyrimidin-6-yl)benzyl ester], the melting point worked out at 293 °C.

Regarding `Cn1c(=O)c2[nH]c(-c3ccc(COC(=O)Nc4cccs4)cc3)cc2n(C)c1=O` [Example 270, Thiophen-2-yl-carbamic acid 4-(1,3-dimethyl-2,4-dioxo-2,3,4,5-tetrahydro-1H-pyrrolo[3,2-d]pyrimidin-6-yl)-benzyl ester], the melting point is 287 °C.

Compound `Cn1c(=O)c2[nH]c(-c3ccc(COC(=O)Nc4ccsc4)cc3)cc2n(C)c1=O` [Example 271, Thiophen-3-yl-carbamic acid 4-(1,3-dimethyl-2,4-dioxo-2,3,4,5-tetrahydro-1H-pyrrolo[3,2-d]pyrimidin-6-yl)-benzyl ester] yielded a melting point of 280 °C.

`Cn1c(=O)c2[nH]c(-c3ccc(COC(=O)Nc4ccco4)cc3)cc2n(C)c1=O` [Example 272, Furan-2-yl-carbamic acid 4-(1,3-dimethyl-2,4-dioxo-2,3,4,5-tetrahydro 1H-pyrrolo[3,2-d]pyrimidin-6-yl)-benzyl ester] showed a melting point of 278 °C.
